From ChEMBL document CHEMBL1201862, “PubChem BioAssay data set” (2004)
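Step 1: Grow cells in 96-well plates. Step 2: Expose to compound for 48 hours at 5 concentrations. Step 3: Interpolate endpoints linearly; if unreached, use highest concentration. At the GI50, growth is halved.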 Calls of active or inactive are those of the source. Rule as the data show it: active = GI50 up to about 1.1 µM and inactive = higher.

Key:
Test in all cases: inhibition of tumour cell growth, NCI panel, 48 h
786-0 = test system: 786-0
A549 = test system: A549
ACHN = test system: ACHN
CCRF-CEM = test system: CCRF-CEM
DU-145 = test system: DU-145
EKVX = test system: EKVX
HCC 2998 = test system: HCC 2998
HL-60 = test system: HL-60
HT-29 = test system: HT-29
KM12 = test system: KM12
MDA-N = test system: MDA-N
MOLT-4 = test system: MOLT-4
Malme-3M = test system: Malme-3M
NCI-H226 = test system: NCI-H226
NCI/ADR-RES = test system: NCI/ADR-RES
OVCAR-8 = test system: OVCAR-8
RPMI-8226 = test system: RPMI-8226
SF-268 = test system: SF-268
SK-MEL-5 = test system: SK-MEL-5
U-251 = test system: U-251

| SMILES | GI50 (786-0) | GI50 (A549) | GI50 (ACHN) | GI50 (CCRF-CEM) | GI50 (DU-145) | GI50 (EKVX) | GI50 (HCC 2998) | GI50 (HL-60) | GI50 (HT-29) | GI50 (KM12) | GI50 (MDA-N) | GI50 (MOLT-4) | GI50 (Malme-3M) | GI50 (NCI-H226) | GI50 (NCI/ADR-RES) | GI50 (OVCAR-8) | GI50 (RPMI-8226) | GI50 (SF-268) | GI50 (SK-MEL-5) | GI50 (U-251) |
| --- | --- | --- | --- | --- | --- | --- | --- | --- | --- | --- | --- | --- | --- | --- | --- | --- | --- | --- | --- | --- |
| N#CC1(C#N)C2C=CC(C3CCC=C32)C1(C#N)C#N (stereo not given) | > 5.66 µM (inactive) | > 10 µM (inactive) | > 6.37 µM (inactive) | 1.91 µM (inactive) | > 10 µM (inactive) | > 10 µM (inactive) | > 10 µM (inactive) | 1.68 µM (inactive) | > 10 µM (inactive) | > 10 µM (inactive) | > 10 µM (inactive) | 2.14 µM (inactive) | 2.57 µM (inactive) | > 10 µM (inactive) | > 10 µM (inactive) | > 10 µM (inactive) | 2.83 µM (inactive) | > 10 µM (inactive) | > 10 µM (inactive) | > 10 µM (inactive) |
| O=C(CC(=O)N1N=C(c2ccccc2)C(/N=N/c2ccc(S(=O)(=O)CCOS(=O)(=O)O)cc2)C1=O)Nc1ccc(Cl)cc1 (stereo not given) | > 100 µM (inactive) | > 100 µM (inactive) | 9.82 µM (inactive) | 49.5 µM (inactive) | > 100 µM (inactive) | > 100 µM (inactive) | 59.4 µM (inactive) | > 100 µM (inactive) | > 100 µM (inactive) | 21.7 µM (inactive) | > 100 µM (inactive) | 79.3 µM (inactive) | > 100 µM (inactive) | > 100 µM (inactive) | > 100 µM (inactive) | > 100 µM (inactive) | > 100 µM (inactive) | > 100 µM (inactive) | > 100 µM (inactive) | > 100 µM (inactive) |
| CC1CCC/C1=C(/I)C(=O)c1ccccc1 (stereo not given) | > 100 µM (inactive) | 98.2 µM (inactive) | > 100 µM (inactive) | 30.4 µM (inactive) | > 100 µM (inactive) | > 100 µM (inactive) | > 100 µM (inactive) | 39.5 µM (inactive) | 48 µM (inactive) | 25.4 µM (inactive) | 36.6 µM (inactive) | 19.2 µM (inactive) | 64.4 µM (inactive) | 60.7 µM (inactive) | 76.7 µM (inactive) | > 100 µM (inactive) | 55.3 µM (inactive) | > 100 µM (inactive) | 26.2 µM (inactive) | > 100 µM (inactive) |
| COC(=O)[C@H](Cc1ccccc1)NC(=O)CCCCCCC(=O)NO | 28.6 µM (inactive) | 44.5 µM (inactive) | > 100 µM (inactive) | 2.67 µM (inactive) | 7.23 µM (inactive) | > 100 µM (inactive) | 16.1 µM (inactive) | 6.01 µM (inactive) | 17.6 µM (inactive) | 28.8 µM (inactive) | 19 µM (inactive) | 2.7 µM (inactive) | 2.65 µM (inactive) | 75.3 µM (inactive) | 23.1 µM (inactive) | 5.28 µM (inactive) | 4.62 µM (inactive) | 12.3 µM (inactive) | 8.91 µM (inactive) | 17.3 µM (inactive) |
| CCC12C=CCN3CCC4(c5cc(C(c6ccc(OC)cc6)C6Cc7ccccc7N6)c(OC)cc5N(C)C4C(O)(C(=O)OC)C1O)C32 (stereo not given) | 18.7 µM (inactive) | 20.4 µM (inactive) | 19.2 µM (inactive) | 3.67 µM (inactive) | 29 µM (inactive) | 36.1 µM (inactive) | 20 µM (inactive) | 1.72 µM (inactive) | 18.2 µM (inactive) | 5.89 µM (inactive) | 18.8 µM (inactive) | 2.26 µM (inactive) | 36.6 µM (inactive) | 32.7 µM (inactive) | 26.1 µM (inactive) | 15.1 µM (inactive) | 1.83 µM (inactive) | 44.6 µM (inactive) | 12.1 µM (inactive) | 11 µM (inactive) |
| O=c1[nH]nc(-c2ccccc2)n1/N=C/c1ccc([N+](=O)[O-])o1 | 4.88 µM (inactive) | 7.66 µM (inactive) | 2.42 µM (inactive) | 1.09 µM (active) | 3.45 µM (inactive) | 8.63 µM (inactive) | 5.26 µM (inactive) | 8.89 µM (inactive) | 2.49 µM (inactive) | 6.65 µM (inactive) | 3.25 µM (inactive) | 0.962 µM (active) | 4.26 µM (inactive) | 9.44 µM (inactive) | 5.85 µM (inactive) | 3.22 µM (inactive) | 2.04 µM (inactive) | 5.57 µM (inactive) | 14.8 µM (inactive) | 6.5 µM (inactive) |
| O=C1NC(=O)C(c2c[nH]c3ccccc23)=C1c1cn(C(c2ccccc2)(c2ccccc2)c2ccccc2)cn1 | 6.52 µM (inactive) | 3.14 µM (inactive) | 4.8 µM (inactive) | 3.98 µM (inactive) | 19.6 µM (inactive) | 4.19 µM (inactive) | 4.63 µM (inactive) | 2.9 µM (inactive) | 4.06 µM (inactive) | 4.06 µM (inactive) | 4.75 µM (inactive) | 2.48 µM (inactive) | 10.4 µM (inactive) | 5.87 µM (inactive) | 4.29 µM (inactive) | 5.33 µM (inactive) | 3.13 µM (inactive) | 11.7 µM (inactive) | 7.57 µM (inactive) | 4.25 µM (inactive) |
